Results on two compounds are retold here after US20230293488A1, “COMPOSITIONS AND METHODS OF USE OF ANTIBACTERIAL DRUG COMBINATIONS” (priority 2015, published 2023).

The test system of one data set is MRSA N315. Description: Neutropenic mouse peritonitis model of MRSA infection. Format: in vivo, mice. To be noted: for Result (Alive/Dead) / Result (survivors per group) / Bacterial detection results: Plated: 67 mg/kg (of each) every 8 hrs SC; for Result (Alive/Dead) / Result (survivors per group): 6 doses; for Result (Alive/Dead) / Bacterial detection results: Plated: one line per mouse; for Result (survivors per group): six days post-infection; for Bacterial detection results: Plated: cheek bleed 11 h post-infection, ~100 uL blood plated, 67 mg/kg; for mice that succumbed to the infection: most within 48 h, 67 mg/kg (of each). From the text:
In vivo mouse model of MRSA infection: Animals. Outbred ICR female mice (6-8 weeks old, 17-25 g body weight; Harlan Laboratories, Inc., Indianapolis, IN, USA) were used. Mice were given Teklad 2019 Extruded Rodent Diet (Harlan Laboratories, Inc., Indianapolis, IN, USA) and water ad libitum. Mice were maintained in polycarbonate shoebox cages containing corncob (The Andersons, Inc., Maumee, OH, USA) and Alpha-dri (Shepherd Specialty Papers, Inc., Richland, MI, USA) bedding under 12-h light/12-h dark cycle at 22±1° C. All procedures involving animals were approved by the University of Notre Dame Institutional Animal Care and Use Committee.
Neutropenic mouse peritonitis model of MRSA infection. Doses of cyclophosphamide (100 μl of 50 mg/ml in 0.9% saline corresponding to 200 mg/kg; Alfa Aesar, Ward Hill, MA, USA) were given intraperitoneally (IP) at 4 days and 1 day prior to infection. The S. strain N315 was streaked onto Brain-Heart Infusion (BHI; Becton Dickson and Company, Sparks, MD, USA) agar and grown overnight at 36° C. The MRSA N315 bacterial inoculum was adjusted to approximately 1×10^8 CFU/ml (corresponding to OD540=0.5), then diluted to give 2×10^7CFU/ml. A 10% porcine mucin (Sigma-Aldrich, St. Louis, MO, USA) suspension was prepared and adjusted to pH 7. Immediately prior to infection, the bacterial inocula were diluted 1:1 with 10% mucin to a final concentration of 1×10^7CFU/ml in 5% mucin. The mice were then infected IP with 0.5 ml of this inoculum. In vivo dosing of compounds in mice was compared with mean or range peak human plasma concentrations of studied β-lactams^44,46,47,62,63.
Antibiotic preparation. Meropenem was obtained from AK Scientific, Inc. (Union City, CA, USA), piperacillin and tazobactam were obtained from Sigma-Aldrich Co. (St. Louis, MO, USA). Linezolid (CAS 165800-03-3) was obtained from AmplaChem (Carmel, IN, USA). Antibiotics were dissolved at a concentration of 16.67 mg/ml in 30% DMSO/30% propylene glycol/40% water. Linezolid was used as positive control and was prepared at 7.5 mg/ml. Vehicle (30% DMSO/30% propylene glycol/40% water) was included as negative control. The dosing formulations were sterilized by passing through 0.2 μm filter prior to injection.
Bacterial isolation from blood. Blood samples were checked for bacterial growth by plating and liquid culture. Whole blood (100 μl, three samples per group) was spread onto Brain-Heart Infusion (BHI) agar plates and incubated at 36° C. overnight. Colonies were counted and three colonies were selected, grown overnight in liquid BHI culture at 36° C., then mixed 1:1 with 30% LB-glycerol and stored at −80° C. The remaining three blood samples of each group (50 μl) was added to 5 ml BHI broth and incubated overnight at 36° C. When growth was noted, cultures were mixed 1:1 with 30% LB-glycerol and stored at −80° C.
Statistical Analyses: Data for minimal inhibitory concentrations (MICs) are derived from triplicate measurements. Adaptation data are taken from two replicate experiments for each drug combination condition. Data for qRT-PCR expression profiling are derived from three replicate experiments taken from three biological replicates each, with standard error of measurement calculated. Mice were treated in groups of six, and growth determination of bacteria determined via plate and broth culture in triplicate. Fisher's Exact test with Bonferroni correction was used for 8 independent tests (comparing each treatment to 610 vehicle).

A further data set has as its target allosteric site of PBP2a (Staphylococcus aureus, UniProt P07944). Nature of the data set: Binding to the allosteric site of PBP2a.
For data set [1] the following is noted: in vivo, iv; cited from earlier work.

What is called Kd is the equilibrium constant for the complex coming apart.

Structures are written as SMILES. Several values for one entry are separate records, joined by “and”; a condition that tells them apart may be missing. Identical values can stand only once. Entries after “also recorded” stand apart in the source; their conditions may differ. Like-named read-outs stand apart in the source and are kept apart here.

Sequence of allosteric site of PBP2a (P07944 whole entry): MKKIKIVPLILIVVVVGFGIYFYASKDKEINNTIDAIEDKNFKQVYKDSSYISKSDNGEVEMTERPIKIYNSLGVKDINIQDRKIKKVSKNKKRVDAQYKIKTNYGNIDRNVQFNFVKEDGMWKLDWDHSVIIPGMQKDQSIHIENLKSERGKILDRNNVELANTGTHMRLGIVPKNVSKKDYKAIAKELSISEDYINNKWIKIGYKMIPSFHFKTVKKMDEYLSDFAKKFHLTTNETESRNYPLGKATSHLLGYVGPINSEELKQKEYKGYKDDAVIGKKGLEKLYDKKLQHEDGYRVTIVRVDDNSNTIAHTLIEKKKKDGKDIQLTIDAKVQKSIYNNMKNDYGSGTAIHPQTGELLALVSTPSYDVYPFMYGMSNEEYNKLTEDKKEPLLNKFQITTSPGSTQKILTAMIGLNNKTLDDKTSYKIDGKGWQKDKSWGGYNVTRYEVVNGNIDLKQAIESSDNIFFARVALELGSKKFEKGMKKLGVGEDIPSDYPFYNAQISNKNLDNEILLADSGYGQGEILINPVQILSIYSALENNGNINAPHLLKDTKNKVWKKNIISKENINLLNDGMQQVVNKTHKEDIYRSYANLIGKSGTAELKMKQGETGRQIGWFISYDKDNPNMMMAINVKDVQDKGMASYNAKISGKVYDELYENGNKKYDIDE

Consider `CCN1CCN(C(=O)N[C@@H](C(=O)N[C@@H]2C(=O)N3[C@@H]2SC(C)(C)[C@@H]3C(=O)O)c2ccccc2)C(=O)C1=O` [Piperacillin], for which, in the data set on MRSA N315, the “Result (Alive/Dead)” value is on record as “Dead”, the “Result (survivors per group)” value is 0/6, the “Bacterial detection results: Plated” value is “Plated: 40 colonies” and the “mice that succumbed to the infection” value was “all mice”.

Take `C[C@@H](O)[C@H]1C(=O)N2C(C(=O)O)=C(S[C@@H]3CN[C@H](C(=O)N(C)C)C3)[C@H](C)[C@H]12` [Meropenem]: the Kd on allosteric site of PBP2a (read-out: dissociation constant (Kd)) was 270 ± 80 µM. The Kd at allosteric site of PBP2a (read-out: dissociation constant (Kd), equivalent (converted)) is 271 µM. Also, in the data set with MRSA N315, the “Result (Alive/Dead)” value is “Alive (4×) and Dead (2×)”; the “Result (survivors per group)” value was 4/6; the “Bacterial detection results: Plated” value is listed as “Plated: 11 colonies; also recorded: Plated: 3 colonies”; the “mice that succumbed to the infection” value was “several mice”. Further, the “mean peak plasma concentration” value in data set [1] is 112 µg/mL.
